The source of these data is PubChem BioAssay (NCI).

Test systems include 786-0 renal; DLD-1 colon; DMS 114 small cell lung; DMS 273 small cell lung; K-562 leukemia; KM20L2 colon; LXFL 529 NSCLC; M19-MEL melanoma; SF-268 CNS; SF-539 CNS; SNB-78 CNS; SR leukemia; UACC-257 melanoma; UO-31 renal; XF 498 CNS; HOP-18 NSCLC; DU-145 prostate.
Experiment in all cases: growth of human tumour cells (NCI), 48 h

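Step 1: Grow cells in 96-well plates. Step 2: Expose to compound for 48 hours at 5 concentrations. Step 3: Interpolate endpoints linearly; if unreached, use highest concentration. TGI marks complete inhibition of growth.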 Where only a bound is given, the exact number is not on record here.

`CC(C)OP(=O)(OC(C)C)/C(=N/N)NNc1ccc([N+](=O)[O-])cc1`: the TGI with 786-0 renal, in the experiment with DLD-1 colon, with DMS 114 small cell lung, with DMS 273 small cell lung, in the experiment with K-562 leukemia and in the experiment with KM20L2 colon was over 100 µM throughout. The TGI in the experiment on LXFL 529 NSCLC, in the experiment on M19-MEL melanoma, with SF-268 CNS, in the experiment with SF-539 CNS, with SNB-78 CNS and in the experiment with SR leukemia was over 100 µM each time. The TGI in the experiment on UACC-257 melanoma, in the experiment on UO-31 renal and in the experiment on XF 498 CNS was over 100 µM throughout.
Take `COc1ccc([N-]/C(=N\n2c(=O)c(C)nn(C)c2=S)N(c2ccc(OC)cc2)c2nn3c(=O)c(C)n[n+](C)c3s2)cc1`: the TGI in the experiment with 786-0 renal, in the experiment on DLD-1 colon, with DMS 114 small cell lung, in the experiment with DMS 273 small cell lung, in the experiment on HOP-18 NSCLC and in the experiment with K-562 leukemia was over 100 µM each time. In addition, the TGI in the experiment with KM20L2 colon, with LXFL 529 NSCLC, in the experiment on M19-MEL melanoma, in the experiment with SF-268 CNS, with SF-539 CNS and with SNB-78 CNS was over 100 µM in each case. For the same compound, the TGI in the experiment on SR leukemia and in the experiment on UACC-257 melanoma was over 100 µM throughout.
In the case of `CCOc1ccc(N=Nc2ccc3oc(=O)c(C(=O)Nc4ccc(OC)cc4)cc3c2)cc1`, the TGI in the experiment on 786-0 renal is 93.9 µM; with DLD-1 colon, 61.4 µM; in the experiment on DMS 273 small cell lung, over 100 µM; in the experiment with K-562 leukemia, over 100 µM; in the experiment with KM20L2 colon, over 100 µM; in the experiment with LXFL 529 NSCLC it was over 100 µM. Moreover, the TGI with M19-MEL melanoma was 91.7 µM; in the experiment on SF-268 CNS, 78.4 µM; in the experiment with SF-539 CNS it was 51 µM; in the experiment on SNB-78 CNS it was 82.8 µM; in the experiment with UACC-257 melanoma it was over 100 µM; in the experiment on UO-31 renal it was 78 µM.
For `CC(C)c1cccc(C(C)C)c1NC(=O)C(=O)C(C(=O)c1ccc2ccccc2c1)C1OC(=O)c2ccccc21` (centres undefined), the TGI in the experiment with 786-0 renal, in the experiment on DLD-1 colon, with DMS 114 small cell lung, in the experiment with K-562 leukemia, in the experiment on LXFL 529 NSCLC and in the experiment on M19-MEL melanoma was over 100 µM each time. Further, the TGI in the experiment on SF-268 CNS, in the experiment on SF-539 CNS, with SNB-78 CNS, with SR leukemia, in the experiment with UACC-257 melanoma and in the experiment on UO-31 renal was over 100 µM each time.
In the case of `O=C1c2nn(-c3ccccc3)nc2C(c2ccccc2)N1c1ccccc1` (centres undefined), the TGI with 786-0 renal, with DLD-1 colon, with DMS 114 small cell lung, in the experiment with DMS 273 small cell lung, with HOP-18 NSCLC and with K-562 leukemia was over 100 µM throughout. The TGI with KM20L2 colon, in the experiment with LXFL 529 NSCLC, with M19-MEL melanoma, in the experiment with SF-268 CNS, with SF-539 CNS and with SNB-78 CNS was over 100 µM each time. Also, the TGI with SR leukemia, with UACC-257 melanoma, in the experiment on UO-31 renal and with XF 498 CNS was over 100 µM each time.
Turning to `O=C1C2CCC(C2)C12CC1(c3ccccc3)C(=O)c3ccccc3N1O2` (centres undefined), the TGI with 786-0 renal, in the experiment on DLD-1 colon, in the experiment on DMS 114 small cell lung, in the experiment with DMS 273 small cell lung, in the experiment with HOP-18 NSCLC and with K-562 leukemia was over 100 µM in each case. For the same compound, the TGI in the experiment with KM20L2 colon, in the experiment with LXFL 529 NSCLC, with M19-MEL melanoma, in the experiment on SF-268 CNS, in the experiment on SF-539 CNS and in the experiment on SNB-78 CNS was over 100 µM throughout. Further, the TGI in the experiment on SR leukemia, in the experiment on UACC-257 melanoma, with UO-31 renal and in the experiment with XF 498 CNS was over 100 µM throughout.
As to `CC(C)C(=O)/C=C/c1ccc(Cl)cc1`, the TGI in the experiment on 786-0 renal worked out at 23.1 µM; with DLD-1 colon it was 32.2 µM; in the experiment on DMS 114 small cell lung it was 39.8 µM; with DMS 273 small cell lung, 14 µM; with HOP-18 NSCLC it was 13.8 µM; in the experiment with K-562 leukemia, 15.6 µM. Moreover, the TGI in the experiment on KM20L2 colon was over 100 µM; in the experiment with LXFL 529 NSCLC, 30.4 µM; with M19-MEL melanoma, 29.6 µM; in the experiment with SF-268 CNS, 67.5 µM; with SF-539 CNS, 22.6 µM; with SR leukemia, 26.2 µM. The TGI in the experiment with UACC-257 melanoma worked out at 40.6 µM; with UO-31 renal it was 24.5 µM; in the experiment on XF 498 CNS, 20.5 µM.
Consider `CCN(CC)C(=S)SC1CCOP(=O)(N(CCCl)CCCl)N1C` (centres undefined), for which the TGI with 786-0 renal was over 80.1 µM; with DLD-1 colon it was 21.3 µM; in the experiment on DMS 114 small cell lung it was 0.553 µM; with DMS 273 small cell lung, over 79.4 µM; with DU-145 prostate, over 100 µM; in the experiment with HOP-18 NSCLC, over 100 µM. For the same compound, the TGI in the experiment on K-562 leukemia is 49.9 µM; in the experiment with KM20L2 colon, over 100 µM; in the experiment with LXFL 529 NSCLC, 19.3 µM; in the experiment with M19-MEL melanoma, 14.8 µM; in the experiment with SF-268 CNS, 98.6 µM; in the experiment on SF-539 CNS it was 56.6 µM. Further, the TGI in the experiment on SNB-78 CNS was over 100 µM; in the experiment on SR leukemia it was 50 µM; in the experiment with UACC-257 melanoma, over 56.1 µM; in the experiment on UO-31 renal, over 96.4 µM.
Consider `O=C1CC(=O)c2c(Cl)sc(Cl)c21`, for which the TGI is over 100 µM in the experiment on 786-0 renal; over 100 µM in the experiment with DU-145 prostate; over 100 µM in the experiment with K-562 leukemia; over 100 µM in the experiment on SF-268 CNS; over 100 µM in the experiment with SF-539 CNS; 75.2 µM in the experiment on SR leukemia. In addition, the TGI in the experiment with UACC-257 melanoma and with UO-31 renal was over 100 µM throughout.
